Results published in patent US9410158B2, “Genetically modified yeast species, and fermentation processes using genetically modified yeast” (Cargill Incorporated, priority 2003, dated 2016).

Tested on: xylose isomerase enzyme (PXYLA)
Assay: Inhibition of PXYLA activity in strain CD861 using xylitol (Ex. 8E)
Format: biochemical, Piromyces sp. E2
Description: Strain CD861 was grown in xylose media containing varying concentrations of xylitol, a known xylose isomerase inhibitor.

change of Km for the xylose isomerase enzyme (xylitol increased from 0 to 0.25 mM): doubled | change of Km for the xylose isomerase enzyme (xylitol increased to 0.50 mM): doubled again
SMILES: OC[C@@H](O)[C@H](O)[C@@H](O)CO [xylitol]
